Data set [1] can be described thus: In vivo toxicity (survival, serum ALT). The arrangement: species or system ICR mice. The following applies: for serum ALT level compared with polymyxin B: day 1. The method, then:
FIG. 7 is a set of graphs showing lower in vivo toxicity of HBcARD peptide D-150-177C in comparison with polymyxin B. At day 0, male ICR mice (5 mice/group) were ip. injected with different doses of D-150-177C peptide (20-80 mg/kg) and polymyxin B (50 mg/kg), respectively. (A) The survival rates of all groups were monitored for 7 days. (B) Serum samples collected from mice treated with D-150-177C and polymyxin B were determined for alanine aminotransferase activity (ALT) at day 1. The dash line represents the mean of ALT value (45 U/L) of ICR mice (Charles River Laboratories).
Using the sepsis mouse model, we examined the survival rates of ICR mice intraperitoneally (i.p.) injected with the 28-mer D-150-177C peptide (20-80 mg/kg body weight) and polymyxin B (a colistin-related compound) (50 mg/kg body weight). […] See FIG. 7, A. When the doses were increased to 60 and 80 mg/kg, survival rates of mice were decreased to 80% and 40%, respectively. See, FIG. 7, A. Liver injury can be detected by the serum ALT level.

Data set [2] has as its system A. baumannii. The data set is classed as cell-based, Acinetobacter baumannii. The method, then:
(§1) The antimicrobial activities of HBcARD peptides were tested using a number of bacterial strains, including Pseudomonas aeruginosa Migula strains (ATCC 27853, ampicillin-resistant and ATCC 9027, ampicillin-resistant), Klebsiella pneumoniae strain (ATCC 13884), Shigella dysenteriae Xen27 (Caliper Co.), Escherichia coli strain (ATCC 25922), Staphylococcus aureus subsp. strains (ATCC 25923, methicillin-resistantATCC 29213, methicillin-resistant and ATCC 19636, methicillin-resistant) and Acinetobacter baumannii strains (ATCC 17978, ATCC 17978 CR, ATCC19606, ATCC 19606 CR, TCGH 45530 and TCGH 46709). Clinical isolates TCGH 45530 and TCGH 46709 were obtained from Tzu-Chi Buddhist General Hospital (TCGH) in Taiwan, and were identified using the Vitek system (Biomerieux Vitek, Inc., Hazelwood, MO, USA). See Chang et al. (2012), J Microbiol Immunol Infect 45:37-42 doi:10.1016/j.jmii.2011.09.019.
(§2) L- and D-HBcARD peptides were purchased from Yao-Hong Biotechnology Inc. (Taipei, Taiwan). Antimicrobial activity was determined as described. See, Chen et al., 2013. Briefly, bacteria were grown in MH broth (Difco) to mid-logarithmic phase at 37° C., and were diluted to 10^6 CFU (colony formation unit)/ml in phosphate buffer (10 mM sodium phosphate and 50 mM sodium chloride, pH 7.2). Peptides were serially diluted in the same buffer. Fifty microliters (μl) of bacteria were mixed with fifty μl of peptides at varying concentrations, followed by incubation at 37° C. for 3 hours without shaking. At the end of incubation, bacteria were placed on Mueller-Hinton broth agar plates, and allowed to grow at 37° C. overnight for measurement of minimal bactericidal concentration (MBC).
(§3) All peptides were tested in triplicate.

Data set [3] deals with P. aeruginosa. The data set is classed as cell-based, Pseudomonas aeruginosa. The method, then:
as §1, §2, §3

For data set [4], the system named is K. pneumoniae. The data set is classed as cell-based, Klebsiella pneumoniae. The method, then: as §1, §2, §3
In data set [5] the test system is S. aureus. The data set is classed as cell-based, Staphylococcus aureus. The method, then: as §1, §2, §3
Data set [6] concerns E. coli. It counts as cell-based, Escherichia coli. The following applies: for Minimal bactericidal concentration: E. coli ATCC 25922. The method, then:
as §1, §2, §3

For data set [7], the system named is S. aureus ATCC 19636. Put plainly: Mouse sepsis model infected with S. aureus, in vivo protection efficacy. On the set-up: species or system ICR mice. To be noted: for survival (mice protected from death): S. aureus 4×10^6 CFU/mouse i.p., monitored 7 days; for in vivo protection efficacy, compared between peptides: mouse sepsis model, FIG. 8 (5 mg/kg) and FIG. 9 (different doses). The method, then: To investigate the in vivo protection efficacy of the 37-mer L- and D-HBcARD peptides, we performed a mouse sepsis model infected with S. aureus. ICR mice were first i.p. inoculated with S. aureus (4×10^6 CFU/mouse), followed by one single i.p. injection of L-HBcARD, D-HBcARD and PBS at two hours post-inoculation, respectively. All mice (n=10) administered with PBS died at day 1. See FIG. 4, A. At 7 days post-inoculation, 40% of mice treated with L-HBcARD (10 mg/kg) survived. See FIG. 4, A. In contrast, D-HBcARD peptide was able to achieve a much higher survival rate (60% for 5 mg/kg dose, and 100% for 10 mg/kg dose).
We compared the in vivo protection efficacy of HBcARD 150-177C peptides (28-mer) containing either D-form or L-form arginines. ICR mice (n=10/group) were ip. inoculated with S. aureus ATCC19636 (4×10^6/mouse), followed by treatment with modified peptides at two hours post-inoculation. All PBS control mice died on day 1, and only 20% of the mice treated with control peptide (150-177Q) survived. Administration of L-150-177C peptide at the dose of 5 and 10 mg/kg protected 30% and 70% mice from death, respectively. When treated with 5 mg/kg of D-150-177C, all mice (100%) survived.
Three-week old male ICR mice (19 to 21 g) were purchased from BioLASCO (Taiwan). To test the in vivo protection efficacy of the HBcARD peptides, all mice were inoculated intraperitoneally with S. aureus ATCC 19636 (4×10^6 CFU/mouse). HBc147-183 (L- or D-HBcARD) or the PBS control was administered intraperitoneally at 2 hours after bacterial inoculation, respectively. Each group contained 10 mice. Mortality was monitored daily for 7 days following the bacterial inoculation.

Setting [8] is: 5 mg/kg single i.p. injection 2 hours post-inoculation.

Where two headings read alike, the source gives them in different places. Where a SMILES comes first, the peptide text is derived from it. Where no end group is shown, it is not given here. [ ]: non-standard residue; d: D form.

In the case of `C[C@@H](O)[C@H](NC(=O)[C@@H](CCCNC(=N)N)NC(=O)[C@@H](CCCNC(=N)N)NC(=O)[C@@H](CCCNC(=N)N)NC(=O)[C@@H]1CCCN1C(=O)[C@H](CO)NC(=O)[C@@H](CCCNC(=N)N)NC(=O)CNC(=O)[C@@H](CCCNC(=N)N)NC(=O)[C@@H](CCCNC(=N)N)NC(=O)[C@H](N)CCCNC(=N)N)C(=O)N1CCC[C@H]1C(=O)N[C@@H](CO)C(=O)N1CCC[C@H]1C(=O)N[C@H](CCCNC(=N)N)C(=O)N[C@H](CCCNC(=N)N)C(=O)N[C@H](CCCNC(=N)N)C(=O)N[C@H](CCCNC(=N)N)C(=O)N[C@@H](CO)C(=O)N[C@@H](CCC(N)=O)C(=O)N[C@@H](CO)C(=O)N1CCC[C@H]1C(=O)N[C@H](CCCNC(=N)N)C(=O)N[C@H](CCCNC(=N)N)C(=O)N[C@H](CCCNC(=N)N)C(=O)N[C@H](CCCNC(=N)N)C(=O)N[C@@H](CO)C(=O)N[C@@H](CS)C(=O)O` [D-150-177C, rrrGrSPrrrTPSPrrrrSQSPrrrrSC] (H-[dR][dR][dR]G[dR]SP[dR][dR][dR]TPSP[dR][dR][dR][dR]SQSP[dR][dR][dR][dR]SC-OH; N-terminus and C-terminus assumed), the survival rate in data set [1] (60 mg/kg i.p., monitored 7 days) was 80%; in data set [1] (80 mg/kg i.p., monitored 7 days), 40%. Moreover, the “serum ALT level compared with polymyxin B” value in data set [1] (60 mg/kg, p<0.01) is reported as “significantly higher”; in data set [1] (20 to 40 mg/kg, p value insignificant) it was “higher ALT level than polymyxin B”. Further, the acute toxicity result in data set [1] (20 and 40 mg/kg i.p., monitored 7 days) was “no acute toxicity”.
Regarding “RKPRGLEPRRRKVKTTVVYGRRRSKSRERRAPTPQR [Duck HBcARD]”, the Minimal bactericidal concentration was 70.6 µg/mL in data set [2], greater than 70.6 µg/mL in data set [3] and greater than 70.6 µg/mL in data set [4].
Take “RKPRGLEPRRRKVKTTVVYGRRRSKSRGRRSSPSQR [Heron HBcARD]”: the figures for the Minimal bactericidal concentration in data set [2], in data set [3] and in data set [4] were 69.3 µg/mL, greater than 69.3 µg/mL and greater than 69.3 µg/mL, respectively.
As usually defined, the MBC is the smallest concentration meeting the test's criterion for killing. Lower therefore signals greater bactericidal potency. Turning to RRRGRSPRRRTPSPRRRRC [150-168C], in data set [5] (S. aureus ATCC19636), the MBC entry was “none of these peptides showed detectable activity”.
As to RRRGRSPRRRTPSPRRRRSQSPRRRRSC [150-177C], the minimum bactericidal concentration (MBC) is 2 µM in data set [6]; 2 µM in data set [3]; 2 µM in data set [5]; “rescued the bactericidal activity” in data set [5] (S. aureus ATCC19636, listed as HBcARD 150-177C). Moreover, the “survival (mice protected from death)” value in data set [7] (setting [8]) turned out to be 30%; in data set [7] (10 mg/kg single i.p. injection 2 hours post-inoculation), 70%.
Compound RRRGRSPRRRTPSPRRRRSQSPRRRRSQ [150-177Q] returned a survival in data set [7] (control peptide, dose not given, treatment 2 hours post-inoculation) of 20%. Further, in data set [5] (S. aureus ATCC19636, listed as HBcARD 150-177Q), the minimal bactericidal concentration (MBC) result was “no detectable bactericidal activity”.
Consider RRRRSQSPRRRRSC [164-177C], for which, in data set [5] (S. aureus ATCC19636), the MBC result is recorded as “none of these peptides showed detectable activity”.
Same read-out and setting: then RRRTPSPRRRRSQSPRRRRC [157-176C], with “none of these peptides showed detectable activity”.
Consider “RrRGRSPRrRTPSPRrRrSQSPRrRrSC (R[dR]RGRSPR[dR]RTPSPR[dR]R[dR]SQSPR[dR]R[dR]SC) [LD-150-177C]”, for which the “survival (mice protected from death)” value in data set [7] (setting [8]) was found to be 80%. The “in vivo protection efficacy, compared between peptides” value in data set [7] was “less than DL-150-177C”.
As for “TIVRRRGGSRATRSPRRRTPSPRRRRSQSPRRRRSQSPASSNC [Bat HBcARD]”, the Minimal bactericidal concentration was 2.5 µg/mL in data set [2] (A. baumannii ATCC 17978); 20 µg/mL in data set [6]; 10 µg/mL in data set [3] (P. aeruginosa ATCC 9027); 20 µg/mL in data set [5] (S. aureus ATCC19636); 5 µg/mL in data set [4] (K. pneumoniae ATCC 13884).
Regarding “TVIRRRGGARASRSPRRRTPSPRRRRSQSPRRRRSQSPSANC [Woodchuck HBcARD]”, the Minimal bactericidal concentration in data set [2] (A. baumannii ATCC 17978) was determined as 4.9 µg/mL; in data set [6], 19.6 µg/mL; in data set [3] (P. aeruginosa ATCC 9027) it was 9.8 µg/mL; in data set [5] (S. aureus ATCC19636), 19.6 µg/mL; in data set [4] (K. pneumoniae ATCC 13884), 9.8 µg/mL.
On to polymyxin B [reference compound], for which, in data set [1] (50 mg/kg body weight i.p.), the “survival outcome after i.p. injection” value is given as “died at day one”.
As for “rRrGRPrRrPPrRrRQPrRrRC ([dR]R[dR]GRP[dR]R[dR]PP[dR]R[dR]RQP[dR]R[dR]RC) [DL-dST-150-177C]”, the “in vivo protection efficacy, compared between peptides” value in data set [7] is “remarkably improved protection efficacy compared to the 28-mers DL-150-177C and L-150-177C”.
With “rRrGRSPrRrTPSPrRrRSQSPrRrRSC ([dR]R[dR]GRSP[dR]R[dR]TPSP[dR]R[dR]RSQSP[dR]R[dR]RSC) [DL-150-177C]”, in data set [7] (setting [8]), the “survival (mice protected from death)” value is listed as “protected all S. aureus-infected mice from death”. In data set [7], the “in vivo protection efficacy, compared between peptides” value is reported as “very similar protection efficacy to all-D-arginine substituted peptide D-150-177C”.
